From doi:10.1101/2022.06.13.496020v1 (biorxiv, 2022) come the findings set out here.

Experiment in all cases: LANCE cAMP accumulation, transfected CHO-K1 cells
What all share (type): cell-based
On the technique in general: In TR-FRET formats the signal depends on donor and acceptor labels being close together.

Assay [1] has as its target TSHR (full-length, 21-764) (Homo sapiens, UniProt P16473, M572A).
Assay [2] has as its target TSHR (full-length, 21-764) (Homo sapiens, UniProt P16473, I640A).
Assay [3] addresses TSHR (full-length, 21-764) (Homo sapiens, UniProt P16473, V586A).
Assay [4] concerns the target TSHR (full-length, 21-764) (Homo sapiens, UniProt P16473, A644F).
Assay [5] addresses TSHR (full-length, 21-764) (Homo sapiens, UniProt P16473).

Chain of TSHR (full-length, 21-764) (Homo sapiens, UniProt P16473, V586A) (P16473 21-764 V586A): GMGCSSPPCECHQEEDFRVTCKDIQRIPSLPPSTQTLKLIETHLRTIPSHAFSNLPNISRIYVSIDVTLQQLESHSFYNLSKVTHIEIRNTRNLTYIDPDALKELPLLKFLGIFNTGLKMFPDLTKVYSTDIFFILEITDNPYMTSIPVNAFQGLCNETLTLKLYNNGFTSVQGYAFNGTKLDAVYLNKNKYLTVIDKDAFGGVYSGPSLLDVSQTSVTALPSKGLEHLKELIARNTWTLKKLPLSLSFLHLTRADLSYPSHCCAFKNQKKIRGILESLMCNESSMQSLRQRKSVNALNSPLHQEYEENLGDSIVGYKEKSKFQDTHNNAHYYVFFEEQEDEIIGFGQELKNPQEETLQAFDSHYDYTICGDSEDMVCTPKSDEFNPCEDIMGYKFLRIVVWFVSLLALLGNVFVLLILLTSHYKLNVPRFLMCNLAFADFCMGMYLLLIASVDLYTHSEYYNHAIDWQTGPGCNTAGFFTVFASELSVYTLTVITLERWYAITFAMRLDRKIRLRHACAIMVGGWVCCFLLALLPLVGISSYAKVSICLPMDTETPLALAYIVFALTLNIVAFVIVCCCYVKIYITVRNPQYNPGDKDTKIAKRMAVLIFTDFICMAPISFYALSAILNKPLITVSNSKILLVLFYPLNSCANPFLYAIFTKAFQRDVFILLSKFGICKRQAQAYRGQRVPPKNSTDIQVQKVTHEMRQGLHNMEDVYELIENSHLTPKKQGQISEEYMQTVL
Chain of TSHR (full-length, 21-764) (Homo sapiens, UniProt P16473, M572A) (P16473 21-764 M572A): as the sequence (P16473 21-764 V586A) above, with M552A, A566V counted along it
Chain of TSHR (full-length, 21-764) (Homo sapiens, UniProt P16473, A644F) (P16473 21-764 A644F): as the sequence (P16473 21-764 V586A) above, with A566V, A624F counted along it
Chain of TSHR (full-length, 21-764) (Homo sapiens, UniProt P16473, I640A) (P16473 21-764 I640A): as the sequence (P16473 21-764 V586A) above, with A566V, I620A counted along it
Chain of TSHR (full-length, 21-764) (Homo sapiens, UniProt P16473) (P16473 21-764): as the sequence (P16473 21-764 V586A) above, with A566V counted along it

Turning to `COc1ccc([C@H]2Nc3cccc(O)c3C(=O)N2Cc2ccccc2)cc1COc1ccc(NC(C)=O)cc1` [ML-109], the EC50 (commonly the concentration that produces a half-maximal response) in assay [1] is 2400 nM; in assay [2], 1150 nM; in assay [3], 2040 nM; in assay [4], 1780 nM; in assay [5], 331 nM.
